Source: ChEMBL document CHEMBL1201862, “PubChem BioAssay data set” (2004)
The source made the active and inactive calls.

Assays:
Phospholipase D2 = Phospholipase D2 (Homo sapiens, UniProt O14939); assay: cellular phospholipase D2 inhibition IC50 – cell-based, dose response (AID 602147); assay type: functional;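 further: cellular assay in HEK293 cells overexpressing GFP-tagged PLD2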
Phospholipase D1 = Phospholipase D1 (Homo sapiens, UniProt Q13393); assay: cellular phospholipase D1 inhibition IC50 – cell-based, dose response (AID 602151); assay type: functional;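 further: cellular PLD1 assay in Calu-1 cells stimulated with PMA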
Phospholipase D1, sequence (Q13393 whole entry): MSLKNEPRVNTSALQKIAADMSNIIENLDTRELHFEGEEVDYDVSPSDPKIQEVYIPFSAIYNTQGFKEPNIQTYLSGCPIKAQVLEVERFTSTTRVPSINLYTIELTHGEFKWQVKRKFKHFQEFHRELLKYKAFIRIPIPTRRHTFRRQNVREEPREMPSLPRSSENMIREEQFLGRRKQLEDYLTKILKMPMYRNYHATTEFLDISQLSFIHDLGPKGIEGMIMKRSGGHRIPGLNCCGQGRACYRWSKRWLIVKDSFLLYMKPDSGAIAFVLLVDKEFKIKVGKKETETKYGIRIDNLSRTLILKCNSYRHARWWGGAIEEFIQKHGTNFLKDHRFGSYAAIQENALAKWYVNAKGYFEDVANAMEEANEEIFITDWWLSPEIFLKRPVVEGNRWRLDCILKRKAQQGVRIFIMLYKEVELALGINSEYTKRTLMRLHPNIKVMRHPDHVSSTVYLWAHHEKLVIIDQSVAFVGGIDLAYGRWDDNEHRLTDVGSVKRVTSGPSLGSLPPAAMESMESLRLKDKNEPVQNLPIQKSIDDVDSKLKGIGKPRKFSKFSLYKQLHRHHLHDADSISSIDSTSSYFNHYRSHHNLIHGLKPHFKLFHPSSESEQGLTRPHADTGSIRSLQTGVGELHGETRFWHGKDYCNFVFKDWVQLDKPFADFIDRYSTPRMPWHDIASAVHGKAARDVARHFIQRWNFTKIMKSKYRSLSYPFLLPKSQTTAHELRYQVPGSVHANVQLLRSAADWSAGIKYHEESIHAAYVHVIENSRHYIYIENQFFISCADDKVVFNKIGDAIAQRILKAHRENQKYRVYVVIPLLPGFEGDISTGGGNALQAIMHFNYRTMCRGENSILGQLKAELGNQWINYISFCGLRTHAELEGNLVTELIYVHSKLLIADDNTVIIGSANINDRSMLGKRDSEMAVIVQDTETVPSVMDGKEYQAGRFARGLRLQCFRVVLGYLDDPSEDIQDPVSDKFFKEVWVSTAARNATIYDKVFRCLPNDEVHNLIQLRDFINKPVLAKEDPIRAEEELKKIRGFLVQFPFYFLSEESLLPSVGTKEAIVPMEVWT

[1] = target: Acyl-homoserine lactone acylase PvdQ (Pseudomonas aeruginosa (strain LESB58), UniProt Q9I194); assay: PvdQ acylase enzyme activity blockers – biochemical, fluorescence, plate reader and imaging, cherry-picks, dose response (AID 493231)
Acyl-homoserine lactone acylase PvdQ, sequence (Q9I194 24-193 limits assumed): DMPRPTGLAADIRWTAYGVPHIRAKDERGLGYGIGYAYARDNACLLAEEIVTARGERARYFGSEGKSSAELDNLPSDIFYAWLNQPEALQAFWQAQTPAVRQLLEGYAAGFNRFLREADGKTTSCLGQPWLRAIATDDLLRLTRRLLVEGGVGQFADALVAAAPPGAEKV
Acyl-homoserine lactone acylase PvdQ, sequence (Q9I194 217-762 limits assumed): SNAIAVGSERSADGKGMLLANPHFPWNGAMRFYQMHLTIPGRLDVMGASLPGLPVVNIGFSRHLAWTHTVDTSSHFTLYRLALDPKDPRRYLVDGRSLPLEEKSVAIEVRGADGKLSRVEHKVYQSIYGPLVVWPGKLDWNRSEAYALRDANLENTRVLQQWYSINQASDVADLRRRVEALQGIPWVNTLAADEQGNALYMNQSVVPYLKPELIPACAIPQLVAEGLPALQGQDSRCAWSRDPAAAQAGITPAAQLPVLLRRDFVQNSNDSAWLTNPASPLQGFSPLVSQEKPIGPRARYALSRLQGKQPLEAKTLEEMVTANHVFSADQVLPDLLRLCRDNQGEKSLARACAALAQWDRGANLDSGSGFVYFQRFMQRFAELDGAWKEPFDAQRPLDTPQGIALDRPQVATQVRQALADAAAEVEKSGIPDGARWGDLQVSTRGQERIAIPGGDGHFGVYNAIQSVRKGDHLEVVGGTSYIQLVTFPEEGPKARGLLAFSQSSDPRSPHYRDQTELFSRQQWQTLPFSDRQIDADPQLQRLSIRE

HeLa = assay: toxicity to human HeLa cells – cell-based, 48 h, plate reader, cherry-picks, cytotoxicity control, dose response (AID 504942); assay type: functional
[2] = non-specific 3'UTR reporter inhibition in Clone20-Shn3RL – cell-based, Renilla luciferase, cherry-picked, counter-screen for Shn3 inhibitor project, dose response (AID 624133); assay type: functional
[3] = loss of viability in HepG2 cells – cell-based, CellTiter-Glo, cherry-picked, cytotoxicity control for Shn3 inhibitor project, dose response (AID 624134); assay type: functional
HEK293 [4] = assay: HEK293T cell viability loss, resazurin readout – resazurin fluorescence, cytotoxicity control for NF-kB activator project, SAR follow-up (AID 493251); assay type: functional, cell-based; settings: Homo sapiens
[5] = reduction of Shn3 3'UTR-driven luciferase in osteoblasts – cell-based, Clone20 osteoblasts, firefly luciferase, cherry-picked, dose response (AID 624132); assay type: functional;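 further: firefly luciferase luminescence from reporter carrying the Shn3 3'UTR in osteoblasts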
HEK293 [6] = assay: SAR Analysis of small molecule inhibitors of T-cell specific antigen receptor-induced NF-kB activation in a HEK-293T cell line using a luminescence assay - Set 2. [Related pubchem assays (depositor defined):AID435003, AID435012, AID489026]; assay type: functional, cell-based; settings: Homo sapiens
Jurkat [7] = assay: SAR Analysis of small molecule inhibitors of T-cell specific antigen receptor-induced NF-kB activation in a Jurkat cell line using a luminescence assay - Set 2. [Related pubchem assays (depositor defined):AID435003, AID435012, AID465]; assay type: functional, cell-based; settings: Homo sapiens
[8] = Luminescence Cell-Based Dose Response HTS to Identify Inhibitors of 5'UTR Stem-Loop Driven Prion Protein mRNA Translation in H4 Neuroglioblastoma Cells. [Related pubchem assays: 1827 (Project Summary), 1813 (Primary HTS)]; assay type: functional
[9] = luciferase reporter signal suppression in cells – H4 neuroglioma cells, luminescence, dose response (AID 1990); assay type: functional, cell-based
[10] = Fluorescence-based cell-based high throughput dose response assay for inhibitors of the interaction of nucleotide-binding oligomerization domain containing 2 (NOD2) and the receptor-interacting serine-threonine kinase 2 (RIPK2).; assay type: functional; settings: Homo sapiens
[11] = alpha-synuclein stem-loop luciferase translation blockers – H4 neuroglioma cells, luminescence, confirmation (AID 1988); assay type: functional, cell-based
Paired box protein Pax-8 = Paired box protein Pax-8 (Homo sapiens, UniProt Q06710); assay: PAX8 transcriptional activity inhibition in RMG-I – RMG-I cells, luciferase, cherry-pick, dose response (AID 687027); assay type: functional, cell-based;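 further: luciferase reporter driven by Pax8 target thyroperoxidase promoter measured by SteadyGlo luminescence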
Paired box protein Pax-8, sequence (Q06710 whole entry): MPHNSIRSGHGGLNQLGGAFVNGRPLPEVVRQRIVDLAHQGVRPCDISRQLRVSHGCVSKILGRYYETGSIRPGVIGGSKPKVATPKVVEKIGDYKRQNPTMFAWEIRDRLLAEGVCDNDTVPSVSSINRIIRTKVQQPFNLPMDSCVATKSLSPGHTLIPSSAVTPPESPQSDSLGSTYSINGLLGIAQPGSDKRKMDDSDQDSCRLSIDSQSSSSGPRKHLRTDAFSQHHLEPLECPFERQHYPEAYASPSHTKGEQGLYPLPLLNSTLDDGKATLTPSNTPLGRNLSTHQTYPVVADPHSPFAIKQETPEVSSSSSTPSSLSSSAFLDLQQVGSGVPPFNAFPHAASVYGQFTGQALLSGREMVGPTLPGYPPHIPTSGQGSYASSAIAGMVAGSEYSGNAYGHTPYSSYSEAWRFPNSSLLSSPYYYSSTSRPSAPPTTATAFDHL

BJ [12] = assay: BJ-TERT fibroblast viability loss – cell-based, RAS-independent, luminescence, dose response (AID 1933); assay type: functional; settings: Homo sapiens
[13] = HEK-293T viability loss after treatment – luminescence, T-cell screen hits, cytotoxicity control for TCR NF-kB inhibitor project, dose response (AID 489026); assay type: functional, cell-based;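 further: cells exposed to compound about 14 hours before the viability readout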
[14] = DRD fibroblast viability loss – cell-based, non-viral oncogenic, luminescence, dose response (AID 1934); assay type: functional; settings: Homo sapiens
BJ [15] = assay: growth inhibition of engineered Ras-driven BJ cells – cell-based, alamar blue fluorescence, cherrypicked samples, dose response (AID 2631); assay type: functional; settings: Homo sapiens;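 further: confirmatory dose-response assay in RAS-dependent BJ fibroblasts engineered with TERT, LT and ST, with cytotoxicity read by fluorescence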
BJ [16] = assay: cells; assay type: functional, cell-based; settings: Homo sapiens
[17] = Luminescence Cell-Based Dose Retest to Confirm Inhibitors of Cancer Stem Cells. [Related pubchem assays (depositor defined):AID2717, AID2721]; assay type: functional; settings: Homo sapiens
BJ [18] = assay: BJ-TERT-LT-ST fibroblast viability loss – cell-based, RAS-independent, luminescence, dose response (AID 1935); assay type: functional; settings: Homo sapiens;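 further: BJ fibroblasts immortalized with TERT plus LT and ST oncogenes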
[19] = target: T1, Short transient receptor potential channel 4 (Mus musculus, UniProt Q9QUQ5); assay: calcium entry via TRPC4 opening agents – cell-based, HEK293 TRPC4/mu-opioid, Fluo-4 calcium, dose response (AID 434937); assay type: functional
T1 sequence (Q9QUQ5 whole entry): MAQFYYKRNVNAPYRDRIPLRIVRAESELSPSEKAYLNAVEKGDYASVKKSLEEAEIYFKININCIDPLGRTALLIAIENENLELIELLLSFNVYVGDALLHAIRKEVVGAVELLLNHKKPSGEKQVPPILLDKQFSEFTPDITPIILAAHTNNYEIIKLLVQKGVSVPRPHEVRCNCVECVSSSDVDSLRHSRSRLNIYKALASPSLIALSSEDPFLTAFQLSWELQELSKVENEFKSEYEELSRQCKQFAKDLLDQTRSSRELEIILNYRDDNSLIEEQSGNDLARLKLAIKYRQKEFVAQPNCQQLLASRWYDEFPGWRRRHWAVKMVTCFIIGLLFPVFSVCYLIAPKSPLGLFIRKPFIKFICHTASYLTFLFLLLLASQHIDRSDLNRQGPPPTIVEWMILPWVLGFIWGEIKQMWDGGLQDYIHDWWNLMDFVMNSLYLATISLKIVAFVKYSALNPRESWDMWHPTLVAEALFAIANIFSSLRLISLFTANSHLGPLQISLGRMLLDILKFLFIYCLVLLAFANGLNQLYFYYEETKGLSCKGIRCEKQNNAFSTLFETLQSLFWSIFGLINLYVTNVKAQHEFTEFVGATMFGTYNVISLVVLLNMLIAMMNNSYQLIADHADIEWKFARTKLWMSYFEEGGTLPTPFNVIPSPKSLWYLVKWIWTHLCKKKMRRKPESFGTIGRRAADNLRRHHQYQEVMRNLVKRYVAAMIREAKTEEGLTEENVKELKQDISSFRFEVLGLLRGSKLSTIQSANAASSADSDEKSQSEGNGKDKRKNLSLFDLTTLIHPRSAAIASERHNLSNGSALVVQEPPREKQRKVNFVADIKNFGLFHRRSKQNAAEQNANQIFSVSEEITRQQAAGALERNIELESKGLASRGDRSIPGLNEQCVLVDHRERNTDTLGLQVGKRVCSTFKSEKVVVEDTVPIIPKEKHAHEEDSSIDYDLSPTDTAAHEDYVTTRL

[20] = target: Delta-type opioid receptor (Homo sapiens, UniProt P41143); assay: Counterscreen for agonists of heterodimerization of the mu 1 (OPRM1) and delta 1 (OPRD1) opioid receptors: Luminescence-based cell-based high throughput dose response assay to identify agonists of OPRD1 homodimerization. [Related pubchem assays (depositor defined):AID504326, AID504355, AID504692, AID504904, AID504905]; assay type: functional
Delta-type opioid receptor, sequence (P41143 whole entry): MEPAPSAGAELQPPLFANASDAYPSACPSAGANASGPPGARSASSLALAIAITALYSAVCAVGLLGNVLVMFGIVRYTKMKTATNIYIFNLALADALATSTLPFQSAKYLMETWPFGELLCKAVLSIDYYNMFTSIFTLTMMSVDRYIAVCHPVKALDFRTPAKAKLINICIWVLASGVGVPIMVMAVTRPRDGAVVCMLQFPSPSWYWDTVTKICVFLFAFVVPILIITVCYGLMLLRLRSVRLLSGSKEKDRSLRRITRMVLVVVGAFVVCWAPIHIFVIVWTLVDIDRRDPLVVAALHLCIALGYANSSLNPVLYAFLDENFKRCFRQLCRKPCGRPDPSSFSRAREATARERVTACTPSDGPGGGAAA

Mu-type opioid receptor = Mu-type opioid receptor (Homo sapiens, UniProt P35372); assay: Counterscreen for agonists of heterodimerization of the mu 1 (OPRM1) and delta 1 (OPRD1) opioid receptors: Luminescence-based cell-based high throughput dose response assay to identify agonists of OPRM1 homodimerization.; assay type: functional;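 further: U2OS cells expressing OPRM1 and beta-arrestin as split beta-galactosidase partners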
Mu-type opioid receptor, sequence (P35372 whole entry): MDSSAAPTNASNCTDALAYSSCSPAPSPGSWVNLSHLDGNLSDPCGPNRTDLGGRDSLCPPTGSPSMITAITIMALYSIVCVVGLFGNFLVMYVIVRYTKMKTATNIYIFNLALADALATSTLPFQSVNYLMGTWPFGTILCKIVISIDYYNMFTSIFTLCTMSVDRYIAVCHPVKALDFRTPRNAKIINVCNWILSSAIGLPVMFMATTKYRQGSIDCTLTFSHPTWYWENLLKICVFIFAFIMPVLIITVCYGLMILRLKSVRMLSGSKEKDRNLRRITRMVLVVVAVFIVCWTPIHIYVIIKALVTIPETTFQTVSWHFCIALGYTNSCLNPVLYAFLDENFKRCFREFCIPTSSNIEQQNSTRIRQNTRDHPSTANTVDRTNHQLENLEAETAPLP

[21] = target: 5-hydroxytryptamine receptor 5A (Homo sapiens, UniProt P47898); assay: Counterscreen for agonists of OPRM1-OPRD1 heterodimerization: luminescence-based cell-based high throughput dose response assay to identify agonists of 5-hydroxytryptamine (serotonin) 5A receptor (HTR5A). [Related pubchem assays (depositor defined):AID504326, AID504355, AID504692, AID504904, AID504905]; assay type: functional
5-hydroxytryptamine receptor 5A, sequence (P47898 whole entry): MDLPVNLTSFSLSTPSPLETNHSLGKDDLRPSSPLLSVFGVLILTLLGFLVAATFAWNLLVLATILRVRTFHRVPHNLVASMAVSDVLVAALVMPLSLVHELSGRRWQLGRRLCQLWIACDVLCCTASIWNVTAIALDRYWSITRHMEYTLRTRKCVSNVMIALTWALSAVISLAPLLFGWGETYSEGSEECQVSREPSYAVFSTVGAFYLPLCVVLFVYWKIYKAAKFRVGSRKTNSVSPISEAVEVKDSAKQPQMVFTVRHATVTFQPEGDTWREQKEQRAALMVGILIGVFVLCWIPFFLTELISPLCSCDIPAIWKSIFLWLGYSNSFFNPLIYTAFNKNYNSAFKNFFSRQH

Escherichia coli = assay: microbe, parasite or virus in culture
[22] = COV362 cell viability loss – plate reader, dry powder, SA12, cytotoxicity control for PAX8 inhibitor project, dose response (AID 743144); assay type: functional, cell-based
[23] = IGROV1 cell killing – plate reader, dry powder samples, PAX8 inhibitor project, dose response (AID 743043); assay type: functional, cell-based; settings: IGROV-1
[24] = inhibitors acting on PAX2 in cells – cell-based, plate reader, dry powder samples, selectivity assay for PAX8 inhibitor project, dose response (AID 743048); assay type: functional;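 further: HEK293 cells carrying a WT1 promoter luciferase reporter driven by expressed Pax2; potency is for inhibition of Pax2 driven reporter signal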
Jurkat [25] = assay: blockers of NF-kB activation in T cells – Jurkat, luciferase reporter, luminescence, B- and T-cell, dose response (AID 489004); assay type: functional, cell-based; settings: Homo sapiens;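 further: NF-kB luciferase reporter Jurkat cells stimulated with PMA plus ionomycin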
[26] = target: T2, Heat shock factor protein 1 (Mus musculus, UniProt P38532); assay: decrease of HSF1-responsive luciferase luminescence – cell-based, NIH3T3, dose retest, confirmation (AID 2382); assay type: functional;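 further: NIH3T3 fibroblasts with HSF1-driven luciferase reporter stressed by proteasome inhibitor MG132; luminescence from HSF1-driven luciferase expression after 8 hours of MG132 stress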
T2 sequence (P38532 whole entry): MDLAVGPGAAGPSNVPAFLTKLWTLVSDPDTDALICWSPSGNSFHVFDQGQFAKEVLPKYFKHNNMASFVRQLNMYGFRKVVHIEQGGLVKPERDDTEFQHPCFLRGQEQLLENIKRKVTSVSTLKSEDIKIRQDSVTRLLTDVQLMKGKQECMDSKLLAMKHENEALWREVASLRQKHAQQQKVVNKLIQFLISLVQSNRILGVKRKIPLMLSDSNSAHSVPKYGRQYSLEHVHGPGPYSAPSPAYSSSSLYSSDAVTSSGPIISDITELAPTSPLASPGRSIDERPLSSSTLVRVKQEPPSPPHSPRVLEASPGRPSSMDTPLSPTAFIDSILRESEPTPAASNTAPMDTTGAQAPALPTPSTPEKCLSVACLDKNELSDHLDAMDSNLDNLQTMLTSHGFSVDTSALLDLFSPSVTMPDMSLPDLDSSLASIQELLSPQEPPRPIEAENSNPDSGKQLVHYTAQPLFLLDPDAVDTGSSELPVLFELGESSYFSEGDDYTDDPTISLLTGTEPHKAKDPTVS

[27] = PAX8-dependent cell viability loss – plate reader, dry powder, dose response (AID 743049); assay type: functional, cell-based
[28] = toxicity toward immortalized ovarian surface epithelium – cell-based, plate reader, dry powder samples, cytotoxicity control for PAX8 inhibitor project, dose response (AID 743045); assay type: functional
[29] = PAX5 cellular inhibition readout – cell-based, plate reader, dry powder samples, selectivity assay for PAX8 inhibitor project, dose response (AID 743047); assay type: functional;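 further: HEK293 cells carrying a Pax5 driven CD19 promoter luciferase reporter; potency of inhibitors that lower reporter luminescence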
[30] = HEK-293T viability loss, compound-treated – cell-based, uHTS hits, cytotoxicity control for B/T-cell NF-kB inhibitor project, dose response (AID 489019); assay type: functional;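 further: IC50 reflects cytotoxicity as loss of cell viability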
[31] = Shn3 3'UTR reporter signal decrease – cell-based, Clone20 osteoblasts, firefly luciferase, cherry-pick, set 2, Schnurri-3 inhibitor project, dose response (AID 720490); assay type: functional;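 further: actives lower the luminescence signal as inhibitors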
[32] = Luminescence-based counterscreen assay for KLF5 inhibitors: dose response cell-based high throughput screening assay to identify cytotoxic compounds using the IEC-6 intestinal epithelial cell line. [Related pubchem assays: 1700 (Primary screen.), 1834 (Confirmation screen.), 1858 (Summary AID.), 1905 (Counterscreen.)]; assay type: functional
CAAX prenyl protease 2 [33] = target: CAAX prenyl protease 2 (Homo sapiens, UniProt Q9Y256); assay: inhibition of Ras-converting CAAX protease Rce1 – biochemical, yeast membranes, quenched-peptide fluorescence, cherry-pick, dose response (AID 588849)
CAAX prenyl protease 2 (Homo sapiens, UniProt Q9Y256), sequence (Q9Y256 whole entry): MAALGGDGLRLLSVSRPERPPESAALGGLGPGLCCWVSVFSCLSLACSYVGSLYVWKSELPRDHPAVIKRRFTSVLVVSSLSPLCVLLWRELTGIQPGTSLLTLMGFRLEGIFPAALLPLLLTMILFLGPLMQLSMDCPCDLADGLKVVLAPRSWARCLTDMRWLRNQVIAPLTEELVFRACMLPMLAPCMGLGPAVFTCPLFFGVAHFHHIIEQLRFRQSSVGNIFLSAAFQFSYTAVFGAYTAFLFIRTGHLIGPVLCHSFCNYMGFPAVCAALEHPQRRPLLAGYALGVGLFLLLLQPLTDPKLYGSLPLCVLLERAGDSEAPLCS

CAAX prenyl protease 2 [34] = target: CAAX prenyl protease 2 (Saccharomyces cerevisiae S288c, UniProt Q03530); assay type: biochemical
CAAX prenyl protease 2 (Saccharomyces cerevisiae S288c, UniProt Q03530), sequence (Q03530 whole entry): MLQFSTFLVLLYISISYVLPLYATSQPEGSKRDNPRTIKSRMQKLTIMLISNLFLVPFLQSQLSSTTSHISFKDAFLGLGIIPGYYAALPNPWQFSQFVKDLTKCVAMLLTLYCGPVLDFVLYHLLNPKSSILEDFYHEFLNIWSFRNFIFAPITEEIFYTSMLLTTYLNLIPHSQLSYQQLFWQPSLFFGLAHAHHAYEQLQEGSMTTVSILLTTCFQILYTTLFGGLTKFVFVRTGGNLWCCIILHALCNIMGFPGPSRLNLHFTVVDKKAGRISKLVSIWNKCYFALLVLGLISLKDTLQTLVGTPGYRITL

Phospholipase D2, sequence (O14939 whole entry): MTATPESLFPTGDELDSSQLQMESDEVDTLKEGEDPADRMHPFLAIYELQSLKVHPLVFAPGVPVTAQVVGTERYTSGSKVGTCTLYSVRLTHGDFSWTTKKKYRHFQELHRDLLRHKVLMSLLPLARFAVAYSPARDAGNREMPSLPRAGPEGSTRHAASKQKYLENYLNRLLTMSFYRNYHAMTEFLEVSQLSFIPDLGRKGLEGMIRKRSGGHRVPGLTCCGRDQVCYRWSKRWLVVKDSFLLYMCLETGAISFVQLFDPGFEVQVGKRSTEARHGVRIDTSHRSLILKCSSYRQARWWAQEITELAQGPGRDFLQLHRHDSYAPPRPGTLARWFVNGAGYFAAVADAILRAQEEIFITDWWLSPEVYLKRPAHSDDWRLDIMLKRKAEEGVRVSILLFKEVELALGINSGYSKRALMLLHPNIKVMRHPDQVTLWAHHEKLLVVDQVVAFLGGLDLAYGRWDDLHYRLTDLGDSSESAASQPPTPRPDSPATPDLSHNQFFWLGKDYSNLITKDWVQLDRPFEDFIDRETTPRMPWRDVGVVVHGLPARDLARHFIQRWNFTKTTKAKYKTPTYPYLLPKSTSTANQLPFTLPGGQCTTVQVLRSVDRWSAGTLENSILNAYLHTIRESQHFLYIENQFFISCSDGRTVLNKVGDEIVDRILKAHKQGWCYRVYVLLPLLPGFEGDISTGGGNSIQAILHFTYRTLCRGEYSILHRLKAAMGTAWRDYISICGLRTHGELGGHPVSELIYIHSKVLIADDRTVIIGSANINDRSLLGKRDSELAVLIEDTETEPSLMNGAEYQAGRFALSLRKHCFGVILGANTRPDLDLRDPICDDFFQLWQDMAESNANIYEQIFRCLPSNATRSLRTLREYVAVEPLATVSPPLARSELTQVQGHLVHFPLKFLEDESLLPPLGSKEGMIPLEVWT

O=C(NCCN1CCC2(CC1)C(=O)Oc1ccccc12)c1cnc2ccccc2c1
active: IC50 (Phospholipase D2) 20 µM
inactive: IC50 (Phospholipase D1) 20 µM

COC(=O)c1ccc(/C=C(\C#N)c2ccccn2)cc1
active: AC50 [1] 2.61 µM | AC50 (HeLa) 103 µM

CC(=O)N1CCN(c2ccc(NC(=O)c3ccc([N+](=O)[O-])o3)cc2Cl)CC1
active: AC50 [2] 11.2 µM | AC50 [3] 48.1 µM | AC50 [5] 1.08 µM | EC50 [8] 8.31 µM | EC50 [9] 11.1 µM | EC50 [11] 9.29 µM | AC50 (Paired box protein Pax-8) 5.83 µM
inactive: IC50 (HEK293 [4]) 55.3 µM | IC50 (HEK293 [6]) 22 µM | IC50 (Jurkat [7]) 27.3 µM | IC50 [10] 49.8 µM

O=Cc1cc2ccccc2nc1SCc1ccc(Cl)c(Cl)c1
inconclusive: EC50 (BJ [18]) 0.396 µM
inactive: IC50 [13] > 80 µM
active: EC50 (BJ [12]) 0.279 µM | EC50 [14] 0.567 µM | EC50 (BJ [15]) < 0.104 µM | EC50 (BJ [16]) 0.777 µM | AC50 [17] 2.82 µM
> 120 µM (not active): EC50 [8] | EC50 [9]

CCOC(=O)C1(CCOc2ccccc2)CCN(Cc2cnc(C)s2)CC1
inactive: EC50 [20] > 92.5 µM | EC50 (Mu-type opioid receptor) > 92.5 µM | EC50 [21] > 92.5 µM
active: EC50 [19] 0.237 µM

O=C(NCCc1ccccc1)c1ccc2c(c1)OCCCO2
active: AC50 (Escherichia coli) 34.1 µM | AC50 [22] 84.9 µM | AC50 [23] 40.3 µM | AC50 [24] 2 µM | AC50 [5] 1.05 µM | IC50 (Jurkat [25]) 0.64 µM | EC50 [26] < 0.16 µM | AC50 [27] 58.7 µM | AC50 [28] 14.2 µM | AC50 (Paired box protein Pax-8) 2.38 µM | AC50 [29] 2.29 µM | AC50 [31] 3.96 µM
> 39.8 µM (not active): IC50 [32]
inactive: AC50 [3] > 70 µM | IC50 [30] > 80 µM

O=C(c1cc(-c2ccccc2)nc2ccccc12)N1CCN(c2ccccn2)CC1
active: AC50 (CAAX prenyl protease 2 [33]) 17 µM | AC50 (CAAX prenyl protease 2 [34]) 4.89 µM
